According to patent EP4775570A1, “CYP11A1 INHIBITOR, PREPARATION METHOD THEREFOR AND USE THEREOF” (Shenzhen Zhongge Biological Technology Co., Ltd., priority 2023, dated 2025):

System: VCaP castration-resistant prostate cancer subcutaneous transplant tumor model
Assay: In vivo pharmacodynamic study in a VCaP castration-resistant prostate cancer subcutaneous transplant tumor model
Parameters: species or system SCID-Beige mice
Conditions: 30mg/kg BID oral + prednisone 0.6mg/kg QD; for tumor inhibitory activity (in words): compared with ODM-208
Method: Animals: experimental male SCID-Beige mice, 6-8-weeks old or 18-22g, provided by Beijing Vital River Laboratory Animal Technology Co., Ltd.
Experiment procedures: all experimental animals were kept within specific-pathogen-free animal barrier facility, and allowed 3 days of adaptation before the experiment began. VCaP tumor cells were in vitro cultured as monolayer in DMEM complete medium (with 10% fetal bovine serum and 1% penicillin & streptomycin) at 37°C in air containing 5% CO2. Tumor cells were routinely passaged 2-3 times a week, and cells in exponential growth phase were collected and counted for tumor cell inoculation. 10x10^6 VCaP tumor cells were resuspended in 0.1ml PBS, thoroughly mixed with 0.1ml matrigel, and then inoculated subcutaneously on the right flank of each mouse to form a tumor. The tumor-bearing mice were allowed to develop to an average tumor volume of around 200mm^3 and underwent castration surgery. The tumor volumes of all mice were measured after one week of castration surgery. Suitable tumor-bearing mice were selected and assigned randomly into the following groups: blank control group, prednisone (0.6mg/kg, QD) group, abiraterone (33.73mg/kg, QD) + prednisone (0.6mg/kg, QD) group, ODM-208 (30mg/kg, BID) + prednisone (0.6mg/kg, QD) group, and the compound of the present disclosure (30mg/kg, BID) + prednisone (0.6mg/kg, QD) group. Animals in blank control group were orally administered with vehicles (0.5%MC+0.5%Tween80 and 0.5%CMCNa), and the animals in other groups were orally administered with corresponding compound. The experiment lasted for 32 days, and during the experiment, the animals in each group were measured for tumor volume and body weight twice a week.

SMILES: COc1cc(CN2Cc3ccccc3C2)ccc1CCC1CCN(S(C)(=O)=O)CC1 [compound 53]
- weight loss (in words): without significant weight loss
- animal weight loss (32 days): -2%
- tumor inhibition rate TGI (castrated tumor-bearing mice, 32 days): 112%
- tumor inhibitory activity (in words): significantly better than ODM-208

SMILES: Cn1c(CN2Cc3ccccc3C2)c(F)cc(CCC2CCN(S(C)(=O)=O)CC2)c1=O [compound 72]
- weight loss (in words): without significant weight loss
- tumor inhibitory activity (in words): significantly better than ODM-208
